According to the NIST ThermoML archive (doi:10.1016/j.jct.2013.04.022):

Tests used:
[1] = mn = molality of the nth substance listed, in mol/kg; conditions: 298.15 K, 85.9 kPa, Liquid; for mass density: Vibrating tube method; for viscosity: Capillary tube (Ostwald / Ubbelohde) method
[2] = 298.15 K, 85.9 kPa, Liquid; for viscosity: Capillary tube (Ostwald / Ubbelohde) method; for mass density: Vibrating tube method
[3] = refractive index (Na D-line) (dimensionless); conditions: 298.15 K; 85.9 kPa; Liquid; Standard Abbe refractometry

CCCCn1cc[n+](C)c1.[Br-] [1-butyl-3-methylimidazolium bromide] + CC(=O)N(C)C
[1]
Conditions | mass density [kg/m3]
m1 = 0.0527 | 944.36
m1 = 0.1475 | 946.97
m1 = 0.1994 | 950.03

CCCCn1cc[n+](C)c1.[Br-] [1-butyl-3-methylimidazolium bromide] + C[S+](C)[O-]
[1]
Conditions | mass density [kg/m3]
m1 = 0.0751 | 1099.03
m1 = 0.0981 | 1099.68
m1 = 0.1923 | 1103.73

Oc1ccccc1C=Nc1ccccc1N=Cc1ccccc1O [2,2'-[1,2-phenylenebis(nitrilomethylidyne)]bis-phenol] + CC(=O)N(C)C
[1]
Conditions | mass density [kg/m3] | viscosity [mPa·s]
m1 = 0.0106 | 937.33 | 0.954
m1 = 0.0323 | 938.87 | 0.975
m1 = 0.0497 | 940.11 | 0.992
m1 = 0.0704 | 941.6 | 1.012
m1 = 0.0899 | 942.99 | 1.031
m1 = 0.1092 | 944.36 | 1.049
m1 = 0.129 | 945.78 | 1.069
m1 = 0.1492 | 947.22 | 1.087
m1 = 0.174 | 949.06 | –
m1 = 0.1742 | – | 1.011

Oc1ccccc1C=Nc1ccccc1N=Cc1ccccc1O [2,2'-[1,2-phenylenebis(nitrilomethylidyne)]bis-phenol] + C[S+](C)[O-]
[1]
Conditions | mass density [kg/m3] | viscosity [mPa·s]
m1 = 0.0099 | 1095.61 | 1.998
m1 = 0.0307 | 1096.3 | 2.041
m1 = 0.0493 | 1096.92 | 2.073
m1 = 0.07 | 1097.62 | 2.109
m1 = 0.0911 | 1098.35 | 2.151
m1 = 0.1086 | 1098.95 | 2.208
m1 = 0.1311 | 1099.71 | 2.229
m1 = 0.1483 | 1100.31 | 2.289
m1 = 0.1717 | 1101.2 | 2.333

CC(=O)N(C)C [N,N-dimethylethanamide]
Conditions | mass density [kg/m3] | refractive index | viscosity [mPa·s]
[2] | 936.57 | – | 0.961
[3] | – | 1.436 | –

C[S+](C)[O-] [dimethyl sulfoxide]
Conditions | mass density [kg/m3] | refractive index | viscosity [mPa·s]
[2] | 1095.29 | – | 1.867
[3] | – | 1.4762 | –
